# Measured values taken from patent US20230181482A1, “LIPIDS FOR DELIVERY OF NUCLEIC ACID SEGMENTS” (AstraZeneca AB, priority 2021, published 2023).
# Columns and labels:
# [1] = mRNA encapsulation efficiency of LNP formulations (Quant-it Ribogreen assay with Triton-X100); type: physicochemical
# Description: (§1) A solution of eGFP mRNA (purchased from TriLink Biotechnologies) in citrate buffer was prepared by mixing mRNA dissolved in MilliQ-water, 100 mM citrate buffer (pH 3) and MilliQ-water to give a solution of 50 mM citrate. Lipid solution in ethanol (99.5%) was prepared with four different lipid components: ionizable lipid (see Table 1); cholesterol (Sigma-Aldrich); DSPC (distearoyl phosphatidyl choline, Avanti Polar Lipids Inc); and a polymer-conjugated lipid (see Table 1). The ratio of lipids in all experiments was ionizable lipid/cholesterol/DSPC/polymer-conjugated lipid (50/38.5/10/1.5 mol %). The total concentration of lipids in all experiments was 12.5 mM.
# (§2) The mRNA and lipid solutions were mixed in a NanoAssemblr (Precision Nanosystems, Vancouver, BC, Canada) microfluidic mixing system at a mixing ratio of Aq:EtOH=3:1 and a constant flow rate of 12 mL/min. The mRNA in citrate buffer solution was prepared such that, at the time of mixing the ratio between the nitrogen atoms on the ionizable lipid and phosphorus atoms (N/P ratio) on the mRNA chain was either 3:1 or 6:1 (see Table 1).
# The final mRNA concentration and encapsulation efficiency percentage (% EE) was measured by Quant-it Ribogreen Assay Kit (ThermoFischer Scientific Inc.) using Triton-X100 to disrupt the LNPs. The mRNA encapsulation efficiency was determined according to the following equation: […]
# [2] = LNP particle size by dynamic light scattering (Zetasizer Nano ZS); type: physicochemical
# Description: as §1, §2
# The first 0.2-0.35 mL and the last 0.05-0.1 mL of the LNP suspension prepared were discarded while the rest of the volume was collected as the sample fraction. The size of the mRNA lipid nanoparticles was determined by dynamic light scattering measurements using a Zetasizer Nano ZS from Malvern Instruments Ltd, giving directly the z-average particle diameter. The number-weighted particle size distributions and averages were calculated using a particle refractive index of 1.45.
# Female BALB/c mice = assay: eGFP expression in the liver at 24 hours after intravenous administration of LNP formulations to mouse (ELISA); type: in vivo; details: LNP N/P 3:1, DMPE-PEG2000
# From the text: Female BALB/c mice were purchased (SPF (Beijing) Laboratory Animal Technology Co. Ltd.) and on arrival were caged in groups of 4 on corncob bedding, with normal diet and were provided tap drinking water ad libitum that was purified and autoclaved before being offered to the animal. The environment was maintained at a target temperature of […] and relative humidity of 40-80%, with a 12-hour light/dark cycle. Animals were acclimatised to the housing conditions for at least 7 days prior to any experimental procedures and were approximately 6-8 weeks of age at the start of dosing
# Animals were assigned to respective groups such that the mean body weights for each treatment groups will be equal. N=4 for each treatment group.
# Formulations 1, 3, 4, 5, and 6 from Example 58 were each dosed intravenously: Each mouse was removed from its cage and restrained, and then dosed with a slow IV bolus of a formulation in the lateral tail vein at a dose […] of 0.3 mg/kg.
# All animals were sacrificed 24 hours after dosing and flowing blood sampling the liver for the animals dosed by the IV route and the liver and muscle at the dose site for the IM dosed animals were harvested for eGFP analysis by ELISA.
# Additional LNP formulations were prepared according to the procedures described in Example 46. These formulations were tested using the same protocol as described herein. The results of eGFP expression in the liver at 24 hours after intravenous administration of the formulations were summarized in Tables 3, 4, 5 and 6 below.
# [3] = Table 1, LNP with eGFP mRNA, N/P ratio 3:1, DMPE-PEG2000
# [4] = Table 1, number-average particle diameter, N/P ratio 3:1, DMPE-PEG2000
# [5] = Table 1, z-average particle diameter, N/P ratio 3:1, DMPE-PEG2000
# [6] = Table 3, N/P ratio 3:1, DMPE-PEG2000
# [7] = Table 4, N/P ratio 3:1, DMPE-PEG2000
# [8] = Table 5, N/P ratio 3:1, DMPE-PEG2000
# [9] = Table 1, LNP with eGFP mRNA, N/P ratio 6:1, DMG-PEG2000
# [10] = Table 1, number-average particle diameter, N/P ratio 6:1, DMG-PEG2000
# [11] = Table 1, z-average particle diameter, N/P ratio 6:1, DMG-PEG2000
"% EE [1, 6]","<d>N (nm) [2, 6]","<d>Z (nm) [2, 6]","% EE [1, 7]","<d>N (nm) [2, 7]","<d>Z (nm) [2, 7]",SMILES,"Liver eGFP protein (ng/g tissue) (Female BALB/c mice; Table 3, 0.3 mg/kg)","Liver eGFP protein (ng/g tissue) (Female BALB/c mice; Table 4, 0.3 mg/kg)",other results
,,,,,,"CCCCCC(CCCCC)CCOC(=O)CCCCCCCC(CCCCCCCC(=O)OCCC(CCCCC)CCCCC)NC1CCOCC1 [Compound 2, bis(3-pentyloctyl) 9-[(oxan-4-yl)amino]heptadecanedioate]",,,"% EE [1, 3]: 96%; <d>N (nm) [2, 4]: 58 nm; <d>Z (nm) [2, 5]: 73 nm"
,,,,,,"CCCCCC(CCCCC)CCOC(=O)CCCCCCCC(CCCCCCCC(=O)OCCC(CCCCC)CCCCC)NCC1CCOC1 (centres unmarked) [Compound 3, bis(3-pentyloctyl) 9-(((tetrahydrofuran-3-yl)methyl)amino)heptadecanedioate]",,,"% EE [1, 3]: 99%; <d>N (nm) [2, 4]: 58 nm; <d>Z (nm) [2, 5]: 79 nm"
,,,,,,"CCCCCC(CCCCC)CCOC(=O)CCCCCCCC(CCCCCCCC(=O)OCCC(CCCCC)CCCCC)NCC1CCOCC1 [Compound 4, bis(3-pentyloctyl) 9-(((tetrahydro-2H-pyran-4-yl)methyl)amino)heptadecanedioate]",,,"% EE [1, 3]: 96%; <d>N (nm) [2, 4]: 62 nm; <d>Z (nm) [2, 5]: 81 nm"
,,,,,,"CCCCCC(CCCCC)CCOC(=O)CCCCCCCC(CCCCCCCC(=O)OCCC(CCCCC)CCCCC)NCC1COC1 [Compound 5, bis(3-pentyloctyl) 9-((oxetan-3-ylmethyl)amino)heptadecanedioate]",,,"% EE [1, 3]: 99%; <d>N (nm) [2, 4]: 54 nm; <d>Z (nm) [2, 5]: 70 nm"
87%,59 nm,77 nm,,,,"CCCCCC(CCCCC)CCOC(=O)CCCCCCCC(CCCCCCCC(=O)OCCC(CCCCC)CCCCC)NCC1CCCCO1 (centres unmarked) [Compound 6, bis(3-pentyloctyl) 9-(((tetrahydro-2H-pyran-2-yl)methyl)amino)heptadecanedioate]",3621.3 ng/g tissue,,
94%,54 nm,77 nm,,,,"CCCCCC(CCCCC)CCOC(=O)CCCCCCCC(CCCCCCCC(=O)OCCC(CCCCC)CCCCC)NCCC1CCOCC1 [Compound 7, bis(3-pentyloctyl) 9-((2-(tetrahydro-2H-pyran-4-yl)ethyl)amino)heptadecanedioate]",6526.4 ng/g tissue,,
95%,61 nm,76 nm,,,,"CCCCCC(CCCCC)CCOC(=O)CCCCCCCC(CCCCCCCC(=O)OCCC(CCCCC)CCCCC)NCC1CCCO1 (centres unmarked) [Compound 8, bis(3-pentyloctyl) 9-(((tetrahydrofuran-2-yl)methyl)amino)heptadecanedioate]",6124.2 ng/g tissue,,
93%,61 nm,81 nm,,,,"CCCCCC(CCCCC)CCOC(=O)CCCCCCCC(CCCCCCCC(=O)OCCC(CCCCC)CCCCC)NCC1COCCO1 (centres unmarked) [Compound 9, bis(3-pentyloctyl) 9-(((1,4-dioxan-2-yl)methyl)amino)heptadecanedioate]",3160.9 ng/g tissue,,
93%,49 nm,66 nm,,,,"CCCCCC(CCCCC)CCOC(=O)CCCCCC(CCCCCC(=O)OCCC(CCCCC)CCCCC)NC1CC2(COC2)C1 [Compound 13, bis(3-pentyloctyl) 7-((2-oxaspiro[3.3]heptan-6-yl)amino)tridecanedioate]",8798.8 ng/g tissue,,
95%,61 nm,77 nm,,,,"CCCCCC(CCCCC)CCOC(=O)CCCCCCCCC(CCCCCCCCC(=O)OCCC(CCCCC)CCCCC)NC1CC2(COC2)C1 [Compound 14, bis(3-pentyloctyl) 10-((2-oxaspiro[3.3]heptan-6-yl)amino)nonadecanedioate]",8056.3 ng/g tissue,,
,,,97%,72 nm,89 nm,"CCCCCC(CCCCC)CCOC(=O)CCCCCCCCC(CCCCCCCCC(=O)OCCC(CCCCC)CCCCC)NC1CCOCC1 [Compound 15, bis(3-pentyloctyl) 10-((tetrahydro-2H-pyran-4-yl)amino)nonadecanedioate]",,829.4 ng/g tissue,
,,,91%,61 nm,78 nm,"CCCCCC(CCCCC)CCOC(=O)CCCCCCCCC(CCCCCCCCC(=O)OCCC(CCCCC)CCCCC)NCC1CCCCO1 (centres unmarked) [Compound 16, bis(3-pentyloctyl) 10-(((tetrahydro-2H-pyran-2-yl)methyl)amino)nonadecanedioate]",,1393.4 ng/g tissue,
,,,93%,77 nm,96 nm,"CCCCCC(CCCCC)CCOC(=O)CCCCCCCCC(CCCCCCCCC(=O)OCCC(CCCCC)CCCCC)NCC1CCOCC1 [Compound 17, bis(3-pentyloctyl) 10-(((tetrahydro-2H-pyran-4-yl)methyl)amino)nonadecanedioate]",,6831.3 ng/g tissue,
,,,97%,67 nm,86 nm,"CCCCCC(CCCCC)CCOC(=O)CCCCCCCCC(CCCCCCCCC(=O)OCCC(CCCCC)CCCCC)NCC1COC1 [Compound 18, bis(3-pentyloctyl) 10-((oxetan-3-ylmethyl)amino)nonadecanedioate]",,6817.5 ng/g tissue,
,,,92%,57 nm,75 nm,"CCCCCCCCCOC(=O)CCCCCC(CCCCCC(=O)OC(CCCCCCCC)CCCCCCCC)NC1CC2(COC2)C1 (centres unmarked) [Compound 19, 1-(heptadecan-9-yl) 13-nonyl 7-((2-oxaspiro[3.3]heptan-6-yl)amino)tridecanedioate]",,9938.1 ng/g tissue,
,,,97%,53 nm,67 nm,"CCCCCCCCCOC(=O)CCCCCC(CCCCCC(=O)OC(CCCCCCCC)CCCCCCCC)NCC1COC1 (centres unmarked) [Compound 20, 1-(heptadecan-9-yl) 13-nonyl 7-((oxetan-3-ylmethyl)amino)tridecanedioate]",,9757.7 ng/g tissue,
,,,,,,"CCCCCCCCC(CCCCCCCC)OC(=O)CCCCCCCC(CCCCCCCC(=O)OCC(C)CCCCCCC)NCC1CCOC1 (centres unmarked) [Compound 21, 1-(heptadecan-9-yl) 17-(2-methylnonyl) 9-(((tetrahydrofuran-3-yl)methyl)amino)heptadecanedioate]",,,"Liver eGFP protein (ng/g tissue) (Female BALB/c mice; Table 5, 0.3 mg/kg): 4103.6 ng/g tissue; % EE [1, 8]: 97%; <d>N (nm) [2, 8]: 57 nm; <d>Z (nm) [2, 8]: 72 nm"
,,,,,,"CCCCCCCCC(CCCCCCCC)OC(=O)CCCCCCCC(CCCCCCCC(=O)OCC(C)CCCCCCC)NC1CC2(COC2)C1 (centres unmarked) [Compound 22, 1-(heptadecan-9-yl) 17-(2-methylnonyl) 9-((2-oxaspiro[3.3]heptan-6-yl)amino)heptadecanedioate]",,,"Liver eGFP protein (ng/g tissue) (Female BALB/c mice; Table 5, 0.3 mg/kg): 4570.6 ng/g tissue; % EE [1, 8]: 95%; <d>N (nm) [2, 8]: 63 nm; <d>Z (nm) [2, 8]: 90 nm"
,,,,,,"CCCCCCCCCOC(=O)CCCCCCCN(CCO)CCCCCCCC(=O)OC(CCCCCCCC)CCCCCCCC [MOD5, heptadecan-9-yl 8-((2-hydroxyethyl)(8-(nonyloxy)-8-oxooctyl)amino)octanoate, reference compound]",,,"% EE [1, 9]: 98%; <d>N (nm) [2, 10]: 47 nm; <d>Z (nm) [2, 11]: 66 nm"
,,,,,,"CCCCCCCCCCCOC(=O)CCCCCN(CCO)CCCCCCCC(=O)OC(CCCCCCCC)CCCCCCCC [MOD8, heptadecan-9-yl 8-((2-hydroxyethyl)(6-oxo-6-(undecyloxy)hexyl)amino)octanoate, reference compound]",,,"% EE [1, 9]: 98%; <d>N (nm) [2, 10]: 49 nm; <d>Z (nm) [2, 11]: 73 nm"
